Values joined by “and” are separate entries in the source; they are usually repeats but may differ in a detail not shown here. Equal values may be shown once. “Also recorded” adds a separate entry of the source. Read-outs that look alike come from different tables or passages of the source.
What was measured:
[1] = test system: dopamine D2 receptor (D2R)/D3R; experiment: In vivo rat PET: drug-induced displacement of 18F-fallypride; conditions: for 18F-Fallypride displacement in vivo (change), Dorsal Striatum / 18F-Fallypride displacement in vivo (change), Ventral Striatum: 90 min post 18F-fallypride
[2] = test system: dopamine D2 receptor (D2R)/D3R
[3] = reason for HPbCD vehicle; ref Xi et al., 2004; Gilbert et al. 2005; cited from earlier work
D3 Receptor [4] = experiment: Binding affinity of drugs at D3 receptor; conditions: for In Vitro D3 Selectivity: D2/D3 affinity ratio of the cited Table 1 values
D3 Receptor [5] = conditions: read-out: Binding Affinity D3 Receptor, cited from earlier work
D2 Receptor = conditions: read-out: Binding Affinity D2 Receptor, cited from earlier work
[6] = ref Mukherjee et al., 2000; cited from earlier work
D3R [7] = conditions: cited from earlier work
[8] = Brain uptake / approximated brain concentration after intravenous injection; assay type: in vivo, rat; conditions: assuming uptake like 11C-5-OH-DPAT
[9] = test system: dopamine D2 receptor (D2R)/D3R; assay type: binding, rabbit
[10] = target: D2R high-affinity (D2Rhigh) sites; conditions: read-out: Kd for D2Rhigh, 1996, cited from earlier work
D3R [11] = conditions: human brain; ref Tziortzi et al., 2011; cited from earlier work
D2RLong = conditions: read-out: D2RLong Ki; with 3H-spiperone; ref Stark et al., 2007; cited from earlier work
D2R/D3R [12] = target: D2R/D3R (Mus musculus, UniProt P30728); experiment: PET/CT of 18F-fallypride in wild type and D2R knock-out mice; assay type: in vivo; conditions: D2R knock-out mice, PET
D2R/D3R [13] = experiment: as above; assay type: in vivo
D2RShort = conditions: read-out: D2RShort Ki; with 3H-spiperone; ref Stark et al., 2007; cited from earlier work
[14] = test system: dopamine D3R, D2Rhigh and D2Rlow receptors; experiment: Approximate levels of 18F-fallypride bound to receptor subtypes; conditions: in vivo levels in striatum
[15] = rat sagittal slices, 10 µM drug, dorsal and ventral striata
[16] = In Vitro and In Vivo PET, ref Mukherjee et al., 2000, Shi et al., 2004
[17] = intravenous dose of 0.015 mg/kg
[18] = BPND KO/BPND WT, mice, listed as 18F-fallypride
[19] = wild-type mice, PET, cerebellum reference

D2R/D3R (Mus musculus, UniProt P30728), sequence (P30728 whole entry): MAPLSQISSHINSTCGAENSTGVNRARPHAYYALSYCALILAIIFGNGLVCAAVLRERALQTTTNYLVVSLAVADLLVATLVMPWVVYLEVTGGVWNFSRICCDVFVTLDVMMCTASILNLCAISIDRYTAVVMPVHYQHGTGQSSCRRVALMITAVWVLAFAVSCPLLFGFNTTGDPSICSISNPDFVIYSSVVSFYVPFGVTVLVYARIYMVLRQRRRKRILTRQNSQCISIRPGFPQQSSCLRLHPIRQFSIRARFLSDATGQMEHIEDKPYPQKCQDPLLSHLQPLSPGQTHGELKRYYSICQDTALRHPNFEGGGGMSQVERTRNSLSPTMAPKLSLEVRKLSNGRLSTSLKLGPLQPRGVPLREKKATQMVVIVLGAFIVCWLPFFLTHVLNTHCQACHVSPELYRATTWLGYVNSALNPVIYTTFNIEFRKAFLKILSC

COc1ccccc1N1CCN(CCCCNC(=O)c2ccc3ccccc3c2)CC1 [BP 897]
18F-fallypride displaced, dorsal and ventral striatum ([1]; 3 mg/kg iv at 90 min post 18F-fallypride, rat PET): 24–29% | Effect on 18F-fallypride binding in DSTR and VSTR ([1]; 3.2 mg/kg at 90 min, rat PET): visible reduction | 18F-Fallypride displacement in vivo (change), Dorsal Striatum ([1]; 3.2 mg/kg iv in HPbCD, rat PET): −29.3% | 18F-Fallypride displacement in vivo (change), Ventral Striatum ([1]; 3.2 mg/kg iv in HPbCD, rat PET): −24.0% | Nondisplaced 18F-Fallypride ([1]; 3.2 mg/kg iv, rat PET): 70 to 76% | 18F-fallypride displaced in vivo ([1]; rat PET, striatum, dose not given at place): > 20% | 18F-fallypride displaced [2, 15]: more than 90% | Water solubility [3]: low water solubility

CCCN1CCO[C@@H]2c3cc(O)ccc3CC[C@H]21 [PHNO]
In Vitro D3 Selectivity (D3 Receptor [4]): 53 | Ki (D3 Receptor [5]; ref Willeit et al., 2006): 0.16 nM | Ki (D2 Receptor; ref Willeit et al., 2006): 8.5 nM

CCCN([11CH2]CC)C1CCc2c(O)cccc2C1 (racemic) [11C-5-OH-DPAT, 11C-(R,S)-5-hydroxy-2-(di-n-propylamino)tetralin]
Uptake in the rat brain [6]: approximately 1 % of the injected dose | Findings (receptor subtype binding) (D3R [7]; [16]): D2Rhigh and some D3R (yet to be confirmed)

CCCN(CCC)[C@@H]1CCc2ccc(O)cc2C1 [(R)-7-OH-DPAT]
Approximated brain concentration ([8]; dose of 1.88 mg/kg): approximately 100 nM | Approximated brain concentration [8, 17]: 0.6 to 1 nM | 18F-Fallypride displacement in vivo (change), Dorsal Striatum ([1]; 0.015 mg/kg iv, rat PET): −22% and −21.5% | 18F-Fallypride displacement in vivo (change), Ventral Striatum ([1]; 0.015 mg/kg iv, rat PET): −29% and −28.7% | Nondisplaced 18F-Fallypride ([1]; 0.015 mg/kg iv, rat PET): 71 to 78% | displacement of 18F-fallypride in the ventral striatum ([1]; 0.015 mg/kg iv, rat PET): 29% | dorsal striatum 18F-fallypride binding reduced by ([1]; 0.015 mg/kg iv, rat PET): 22% | 18F-Fallypride displacement in vivo (change), Dorsal Striatum ([1]; 0.06 mg/kg iv, rat PET): −32.9% | 18F-Fallypride displacement in vivo (change), Ventral Striatum ([1]; 0.06 mg/kg iv, rat PET): −43.4% | Nondisplaced 18F-Fallypride ([1]; 0.06 mg/kg iv, rat PET): 57 to 67% | 18F-Fallypride displacement in vivo (change), Dorsal Striatum ([1]; 0.38 mg/kg iv, rat PET): −67.9% | 18F-Fallypride displacement in vivo (change), Ventral Striatum ([1]; 0.38 mg/kg iv, rat PET): −75% | Nondisplaced 18F-Fallypride ([1]; 0.38 mg/kg iv, rat PET): 25 to 32% | 18F-Fallypride displacement in vivo (change), Dorsal Striatum ([1]; 1.88 mg/kg iv, rat PET): −58% and −57.6% | 18F-Fallypride displacement in vivo (change), Ventral Striatum ([1]; 1.88 mg/kg iv, rat PET): −77% and −76.7% | Nondisplaced 18F-Fallypride ([1]; 1.88 mg/kg iv, rat PET): 23 to 42% | displacement of 18F-fallypride in the ventral striatum ([1]; 1.88 mg/kg iv, rat PET): 77% | dorsal striatum 18F-fallypride binding reduced by ([1]; 1.88 mg/kg iv, rat PET): 58% | 18F-fallypride displaced in vivo ([1]; dose of 1.88 mg/kg): greater than 50% | 18F-fallypride displaced in vivo [1, 17]: approximately 20% | 18F-fallypride binding reduced by ([2]; 10 nM drug, rat ventral striatum (VST) and dorsal striatum (DST)): 10–15% | 18F-fallypride binding reduced by ([2]; 10 µM drug, all regions in rat): ≥ 85% | 18F-fallypride displaced ([2]; rat horizontal slices, 100 nM drug): approx. 30% | 18F-fallypride displaced ([2]; rat horizontal slices, 10 µM drug): exceeded 80% | 18F-fallypride displaced ([2]; rat horizontal slices, micromolar concentration): about 60% | 18F-fallypride displaced ([2]; rat sagittal slices, 10 µM drug, dorsal striatum): approx. 75% | 18F-fallypride binding reduced by ([9]; 10 nM drug, rabbit nucleus accumbens): 10–15% | 18F-fallypride binding reduced by ([9]; 10 µM drug, all regions in rabbit): ≥ 85% | 18F-fallypride displaced ([9]; rabbit sagittal slices, lower doses, olfactory tubercle and nucleus accumbens): approx. 15% | Kd ([10]; ref Gonzalez and Sibley, 1995, van Vliet et al.): 56 nM and 89 nM

C=CCN1CCC[C@H]1CNC(=O)c1cc(CCCF)cc(OC)c1OC [Fallypride]
Ki (D2 Receptor; ref Stark et al., 2007): 2.1 nM

CC[11CH2]N1CCO[C@@H]2c3cc(O)ccc3CCC21 (some centres unmarked) [11C-PHNO]
D3R binding fraction, substantia nigra and hypothalamus (D3R [11]): 100% | D3R binding fraction, ventral striatum (D3R [11]): 26%

CCCN(CCCCC[18F])C1CCc2c(O)cccc2C1 (racemic) [18F-5-OH-FPPAT, (R,S)-2-(N-propyl-N-(5-^18F-fluoropentyl)-5-hydroxyaminotetralin]
Findings (receptor subtype binding) (D3R [7]; [16]): D2Rhigh and some D3R (yet to be confirmed)

C=CCN1CCC[C@H]1CNC(=O)c1cc(CCC[18F])cc(OC)c1OC [18F-Fallypride, (S)-N-[(1-allyl-2-pyrrolidinyl)methyl]-5-(3-[18F]fluoropropyl)-2,3-dimethoxybenzamide]
Ki (D2RLong): 2.2 nM | BPND KO, Hypothalmus (D2R/D3R [12]): 1.36 | BPND KO, Substantia nigra/ Ventral tegmental area (D2R/D3R [12]): 0.81 | BPND KO, Ventral Striatum (D2R/D3R [12]): 0.55 | BPND KO, Dorsal Striatum (D2R/D3R [12]; small negative values listed as 0): 0 | fD3 (fraction of total binding to D3 receptors), Dorsal Striatum (D2R/D3R [13]; BPND KO/BPND WT, mice): 0% | fD3 (fraction of total binding to D3 receptors), Hypothalmus (D2R/D3R [13]; BPND KO/BPND WT, mice): 98.5% | fD3 (fraction of total binding to D3 receptors), Substantia nigra/ Ventral tegmental area (D2R/D3R [13]; BPND KO/BPND WT, mice): 99.2% | fD3 (fraction of total binding to D3 receptors), Ventral Striatum (D2R/D3R [13]; BPND KO/BPND WT, mice): 15.6% | fD3 (fraction of total binding to D3 receptors), Hypothalmus (D2R/D3R [13]; [18]): ~ 100% | fD3 (fraction of total binding to D3 receptors), Substantia nigra/ Ventral tegmental area (D2R/D3R [13]; [18]): ~ 100% | fD3 (fraction of total binding to D3 receptors), Ventral Striatum (D2R/D3R [13]; [18]): 15% | BPND WT, Dorsal Striatum (D2R/D3R [13]; [19]): 5.30 | BPND WT, Hypothalmus (D2R/D3R [13]; [19]): 1.38 | BPND WT, Substantia nigra/ Ventral tegmental area (D2R/D3R [13]; [19]): 0.81 | BPND WT, Ventral Striatum (D2R/D3R [13]; [19]): 3.51 | Ki (D2RShort): 2.1 nM | Level of 18F-fallypride bound to D2Rhigh [14]: ~60% | Level of 18F-fallypride bound to D2Rlow [14]: ~20% | Level of 18F-fallypride bound to D3R [14]: ~20%

O=C(NCCCCN1CCN(c2cccc(Cl)c2Cl)CC1)c1ccc2c(c1)Cc1ccccc1-2 [NGB 2904]
Effect on 18F-fallypride binding in dorsal and ventral striatum ([1]; 4 mg/kg iv at 90 min, rat PET): no measureable reduction; also recorded: not evident | 18F-Fallypride displacement in vivo (change), Dorsal Striatum ([1]; 4.0 mg/kg iv in HPbCD, rat PET): Not significant | 18F-Fallypride displacement in vivo (change), Ventral Striatum ([1]; 4.0 mg/kg iv in HPbCD, rat PET): Not significant | Nondisplaced 18F-Fallypride ([1]; 4.0 mg/kg iv, rat PET): 100% | 18F-fallypride displaced [2, 15]: 40 to 50% | Water solubility [3]: low water solubility | D3R selectivity (over D2R) (D3 Receptor [4]): > 50 fold | In Vitro D3 Selectivity (D3 Receptor [4]): 56 | Ki (D3 Receptor [5]; ref Heiderbreder et al., 2010): 2 nM | Ki (D2 Receptor; ref Heiderbreder et al., 2010): 112 nM

CCCN(CC=C[125I])C1CCc2ccc(O)cc2C1 (centres unmarked) [125I-7-OH-PIPAT]
Findings (receptor subtype binding) (D3R [7]; In Vitro, ref Mugnani et al., 2013, Gurevich and Joyce, 1999): D3R binding; D2Rhigh binding not known

CCCN(CCC)C1CCc2ccc(O)cc2C1 (centres unmarked) [7-OH-DPAT]
Kd ([10]; ref van Vliet et al.): 56 nM and 89 nM

CCCN(CCC)C1CCc2ccc(O)cc2C1 (centres unmarked) [3H-7-OH-DPAT]
Findings (receptor subtype binding) (D3R [7]; In Vitro, ref Gonzalez and Sibley, 1995): D3R binding at low concentrations and D2Rhigh at higher concentrations

Source: PMC4624469 (Synapse (New York, N.Y.), 2015)
